Source: ChEMBL document CHEMBL1201862, “PubChem BioAssay data set” (2004)
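Cells were grown in 96-well plates and exposed to each compound for 48 hours at five concentrations; endpoints were interpolated linearly between bracketing concentrations, or set to the highest concentration if not reached. Here, GI50 denotes the concentration required for 50% inhibition of growth.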 Calls of active or inactive are those of the source. No stated cut-off is given here; in the data, active = GI50 up to about 1.1 µM and inactive = higher.

Legend:
Test in all cases: NCI tumour cell line growth inhibition, 48 h
[1] = test system: SK-MEL-5
[2] = test system: LOX IMVI
[3] = test system: NCI-H460
[4] = test system: HT-29
[5] = test system: CCRF-CEM
[6] = test system: NCI-H23
[7] = test system: HCT-116
[8] = test system: UACC-257
[9] = test system: SF-539
[10] = test system: K562
[11] = test system: COLO 205
[12] = test system: UO-31
[13] = test system: KM12
[14] = test system: MDA-MB-435
[15] = test system: OVCAR-5
[16] = test system: M14
[17] = test system: T47D
[18] = test system: 786-0
[19] = test system: SK-OV-3
[20] = test system: IGROV-1

| SMILES | GI50 [1] | GI50 [2] | GI50 [3] | GI50 [4] | GI50 [5] | GI50 [6] | GI50 [7] | GI50 [8] | GI50 [9] | GI50 [10] | GI50 [11] | GI50 [12] | GI50 [13] | GI50 [14] | GI50 [15] | GI50 [16] | GI50 [17] | GI50 [18] | GI50 [19] | GI50 [20] |
| --- | --- | --- | --- | --- | --- | --- | --- | --- | --- | --- | --- | --- | --- | --- | --- | --- | --- | --- | --- | --- |
| Cc1cc(S(=O)(=O)Nc2nc(N)n(C)n2)c(S)cc1Cl | > 10 µM (inactive) | > 10 µM (inactive) | > 10 µM (inactive) | > 10 µM (inactive) | > 10 µM (inactive) | > 10 µM (inactive) | > 10 µM (inactive) | > 10 µM (inactive) | > 10 µM (inactive) | > 10 µM (inactive) | > 10 µM (inactive) | > 10 µM (inactive) | > 10 µM (inactive) | > 10 µM (inactive) | > 10 µM (inactive) | > 10 µM (inactive) | > 10 µM (inactive) | > 10 µM (inactive) | > 10 µM (inactive) | > 10 µM (inactive) |
| O=C1C(Cl)=C(Nc2ccc(OC(F)(F)F)cc2)C(=O)c2c(O)ccc(O)c21 | 2.11 µM (inactive) | 0.262 µM (active) | 1.71 µM (inactive) | 0.385 µM (active) | 0.377 µM (active) | 0.303 µM (active) | 0.203 µM (active) | 0.959 µM (active) | 1.73 µM (inactive) | 0.284 µM (active) | 1.2 µM (inactive) | 0.561 µM (active) | 1.5 µM (inactive) | 0.873 µM (active) | 1.76 µM (inactive) | 0.423 µM (active) | 0.417 µM (active) | 0.445 µM (active) | 1.66 µM (inactive) | 0.745 µM (active) |
| O=[N+]([O-])C(=C(Cl)Cl)C(Cl)=C(Cl)Cl | 0.52 µM (active) | < 0.0117 µM (active) | 1.96 µM (inactive) | 0.141 µM (active) | < 0.01 µM (active) | 0.265 µM (active) | 0.0929 µM (active) | 0.166 µM (active) | 1.45 µM (inactive) | 0.0118 µM (active) | 0.0368 µM (active) | 0.836 µM (active) | 1.85 µM (inactive) | 0.314 µM (active) | 2.02 µM (inactive) | 0.0202 µM (active) | 0.037 µM (active) | 0.0895 µM (active) | 3.25 µM (inactive) | 0.422 µM (active) |
| CC[N+]1(C)CCC(O)(/C=C/c2ccccc2)C(C(=O)/C=C/c2ccccc2)C1 (stereo not given) | 16.6 µM (inactive) | 2.79 µM (inactive) | 15 µM (inactive) | 7.59 µM (inactive) | 1.94 µM (inactive) | 15.2 µM (inactive) | 6 µM (inactive) | 10.2 µM (inactive) | 7.43 µM (inactive) | 2.7 µM (inactive) | 3.44 µM (inactive) | 15.6 µM (inactive) | 3.71 µM (inactive) | 12.2 µM (inactive) | 18.1 µM (inactive) | 11.3 µM (inactive) | 15.3 µM (inactive) | 4.02 µM (inactive) | 18.2 µM (inactive) | 18.7 µM (inactive) |
| Cc1c(NC(=O)CSC(=S)N2CCN(Cc3ccccc3)CC2)c(=O)n(-c2ccccc2)n1C | > 100 µM (inactive) | > 100 µM (inactive) | > 100 µM (inactive) | > 100 µM (inactive) | > 100 µM (inactive) | > 100 µM (inactive) | > 100 µM (inactive) | > 100 µM (inactive) | > 100 µM (inactive) | > 100 µM (inactive) | > 100 µM (inactive) | > 100 µM (inactive) | > 100 µM (inactive) | > 100 µM (inactive) | > 100 µM (inactive) | > 100 µM (inactive) | > 100 µM (inactive) | > 100 µM (inactive) | > 100 µM (inactive) | > 100 µM (inactive) |
| CN(C)c1ccc(/C=C(\NC(=O)c2ccccc2)C(=O)NC(CC(=O)O)C(=O)O)cc1 (stereo not given) | 94.6 µM (inactive) | 86.3 µM (inactive) | 65.9 µM (inactive) | > 100 µM (inactive) | > 100 µM (inactive) | > 100 µM (inactive) | > 100 µM (inactive) | > 100 µM (inactive) | > 100 µM (inactive) | 18.2 µM (inactive) | > 100 µM (inactive) | > 100 µM (inactive) | 39.4 µM (inactive) | > 100 µM (inactive) | > 100 µM (inactive) | > 100 µM (inactive) | > 100 µM (inactive) | 41.9 µM (inactive) | > 100 µM (inactive) | > 100 µM (inactive) |
| C=CCOC1(CC=C)C(=O)OC2C(O)COC21O (stereo not given) | > 100 µM (inactive) | > 100 µM (inactive) | > 100 µM (inactive) | > 100 µM (inactive) | > 100 µM (inactive) | > 100 µM (inactive) | > 100 µM (inactive) | > 100 µM (inactive) | > 100 µM (inactive) | > 100 µM (inactive) | > 100 µM (inactive) | > 100 µM (inactive) | > 100 µM (inactive) | > 100 µM (inactive) | > 100 µM (inactive) | > 100 µM (inactive) | > 100 µM (inactive) | > 100 µM (inactive) | > 100 µM (inactive) | > 100 µM (inactive) |
| C[C@H]1CC[C@H](NC(=O)N(CCCl)N=O)CC1 | 40.4 µM (inactive) | 13 µM (inactive) | 39.1 µM (inactive) | 51.2 µM (inactive) | 13.2 µM (inactive) | 54.5 µM (inactive) | 39.6 µM (inactive) | 46.3 µM (inactive) | 27.1 µM (inactive) | 34.3 µM (inactive) | 32.7 µM (inactive) | 49.9 µM (inactive) | 59.3 µM (inactive) | 28.1 µM (inactive) | 55.7 µM (inactive) | 27.6 µM (inactive) | 29.7 µM (inactive) | 31.6 µM (inactive) | 77.3 µM (inactive) | 38.8 µM (inactive) |
| O=C(O)CC(CC(=O)O)n1cccc1 | > 100 µM (inactive) | > 100 µM (inactive) | > 100 µM (inactive) | > 100 µM (inactive) | > 100 µM (inactive) | > 100 µM (inactive) | > 100 µM (inactive) | > 100 µM (inactive) | > 100 µM (inactive) | > 100 µM (inactive) | > 100 µM (inactive) | > 100 µM (inactive) | > 100 µM (inactive) | > 100 µM (inactive) | > 100 µM (inactive) | > 100 µM (inactive) | > 100 µM (inactive) | > 100 µM (inactive) | > 100 µM (inactive) | > 100 µM (inactive) |
| Cc1ccccc1C1=C/C(=C(\SS/C(C(=O)c2ccc(OCC(=O)O)c(Cl)c2Cl)=C2\C=C(c3ccccc3C)SS2)C(=O)c2ccc(OCC(=O)O)c(Cl)c2Cl)SS1 | 26.3 µM (inactive) | 6.82 µM (inactive) | 26.4 µM (inactive) | 33.1 µM (inactive) | 12.5 µM (inactive) | 21.5 µM (inactive) | 21.7 µM (inactive) | 29.4 µM (inactive) | 17.2 µM (inactive) | 8.65 µM (inactive) | 12.2 µM (inactive) | 20.9 µM (inactive) | 22.3 µM (inactive) | 36.1 µM (inactive) | 51.1 µM (inactive) | 25.5 µM (inactive) | 5.16 µM (inactive) | 33.3 µM (inactive) | 39.9 µM (inactive) | 16.4 µM (inactive) |
| C=C(CC)C(=O)c1ccc(OCC(=O)O)c(Cl)c1Cl [ETHACRYNIC ACID] | 25.8 µM (inactive) | 14.7 µM (inactive) | 44.3 µM (inactive) | 17.9 µM (inactive) | 35.8 µM (inactive) | 25 µM (inactive) | 23.1 µM (inactive) | 18.9 µM (inactive) | 7.87 µM (inactive) | 53 µM (inactive) | 19 µM (inactive) | 19.5 µM (inactive) | 5.5 µM (inactive) | 17.5 µM (inactive) | 29.8 µM (inactive) | 18.5 µM (inactive) | 9.35 µM (inactive) | 6.93 µM (inactive) | 48.1 µM (inactive) | 22 µM (inactive) |
| Cn1c(=O)c2nc(/N=N/Nc3nncs3)[nH]c2n(C)c1=O | > 100 µM (inactive) | > 100 µM (inactive) | > 100 µM (inactive) | > 100 µM (inactive) | > 100 µM (inactive) | > 100 µM (inactive) | > 100 µM (inactive) | > 100 µM (inactive) | > 100 µM (inactive) | > 100 µM (inactive) | > 100 µM (inactive) | > 100 µM (inactive) | > 100 µM (inactive) | > 100 µM (inactive) | > 100 µM (inactive) | > 100 µM (inactive) | > 100 µM (inactive) | > 100 µM (inactive) | > 100 µM (inactive) | > 100 µM (inactive) |
| CN(C)c1cccc2c(S(=O)(=O)NCCCNCCN)cccc12 | 20.8 µM (inactive) | 66.8 µM (inactive) | 62.4 µM (inactive) | 25.9 µM (inactive) | 22.3 µM (inactive) | 82.4 µM (inactive) | 36.2 µM (inactive) | > 100 µM (inactive) | 21.3 µM (inactive) | 20.8 µM (inactive) | 17.6 µM (inactive) | 56.9 µM (inactive) | 67 µM (inactive) | 27.4 µM (inactive) | 38.1 µM (inactive) | 18.9 µM (inactive) | 49.4 µM (inactive) | 53.1 µM (inactive) | 46.9 µM (inactive) | 67.9 µM (inactive) |
| CC(C)CCC[C@@H](C)[C@H]1CC[C@H]2[C@@H]3CC[C@H]4C[C@@H](CCC=C(c5cc(Cl)c(O)c(C(=O)O)c5)c5cc(Cl)c(O)c(C(=O)O)c5)CC[C@]4(C)[C@H]3CC[C@]12C | > 100 µM (inactive) | > 100 µM (inactive) | > 100 µM (inactive) | > 100 µM (inactive) | > 100 µM (inactive) | > 100 µM (inactive) | > 100 µM (inactive) | > 100 µM (inactive) | > 100 µM (inactive) | > 100 µM (inactive) | > 100 µM (inactive) | > 100 µM (inactive) | > 100 µM (inactive) | > 100 µM (inactive) | > 100 µM (inactive) | > 100 µM (inactive) | > 100 µM (inactive) | > 100 µM (inactive) | > 100 µM (inactive) | > 100 µM (inactive) |
